In article PMC10826971, “Evaluating protein cross-linking as a therapeutic strategy to stabilize SOD1 variants in a mouse model of familial ALS” (PLOS Biology, 2024):

What was measured:
SOD1^A4V = molecular target: T1, SOD1^A4V (Homo sapiens, UniProt P00441, A5V); test: Differential scanning fluorimetry (DSF), thermal stability; type: binding
T1 construct: made in house; host or cells: EGy118ΔSOD1 yeast, YEp351 expression vector
Method: (§1) To understand how cross-linking effects SOD1 stability, we quantified changes in unfolding temperature (ΔTu, hereafter thermal stability).
(§2) The effect of cross-link formation on the thermal stability of SOD1 was determined by differential scanning fluorimetry as previously described. […] After incubation, SYPRO Orange (Invitrogen Corporation, Carlsbad, California, USA), an environmentally sensitive fluorescent dye which is quenched in an aqueous environment but becomes unquenched once it binds hydrophobic residues, was added to the reaction mixture to a final concentration of 200×. The samples were then transferred to a fast optical 96-well reaction plate (Applied Biosystem, Life Technologies Corporation, Carlsbad, California, USA) and loaded on to the real-time PCR machine (Applied Biosystem, Life Technologies Corporation, Carlsbad, California, USA) after plate was spun down to eliminate bubbles. The Melt curve template in StepOne Plus software was used to set up a method. […] The final concentration of DMSO in the reaction mixture was checked as it contributes to the denaturation of proteins. Dilutions were performed accordingly to maintain the final concentration of DMSO less than 1% (vol/vol). All samples were run in technical triplicates. The background data was subtracted from the average relative fluorescence and average derivate for each temperature point, and the data were normalized before Tus were quantified by averaging the negative first derivative of relative fluorescence of all 3 runs and identifying the local minima.

SOD1^H46R = molecular target: T2, SOD1^H46R (Homo sapiens, UniProt P00441, H47R); test: as above; type: binding
T2 construct: made in house; host or cells: EGy118ΔSOD1 yeast, YEp351 expression vector
T2 sequence (P00441 2-154 H47R limits assumed): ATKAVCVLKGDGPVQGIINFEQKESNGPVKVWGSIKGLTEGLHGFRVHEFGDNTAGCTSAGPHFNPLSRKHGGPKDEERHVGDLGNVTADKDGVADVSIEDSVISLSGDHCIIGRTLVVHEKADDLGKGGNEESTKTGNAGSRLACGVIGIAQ
Method: as §1, §2

wild-type SOD1 = wild-type SOD1 (Homo sapiens, UniProt P00441); test: SOD1 cross-linking in Hep G2 cells, SDS-PAGE and western blot; type: cell-based; conditions: Hep G2 cells in PBS buffer, 30 min
Sequence of wild-type SOD1 (P00441 2-154 limits assumed): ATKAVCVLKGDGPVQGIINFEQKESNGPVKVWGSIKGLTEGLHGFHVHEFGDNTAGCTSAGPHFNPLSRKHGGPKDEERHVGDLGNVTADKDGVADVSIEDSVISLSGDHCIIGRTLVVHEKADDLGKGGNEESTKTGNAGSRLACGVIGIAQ
Method: The Hep G2 human hepatocarcinoma cell line (American Type Culture Collection, ATCC, Manassas, Virginia, USA) was cultured using complete EMEM (Eagle’s minimal essential medium, ATCC) media including 10% FBS (fetal bovine serum, ATCC) and 1% penicillin streptomycin (10,000 units/mL penicillin and 10,000 μg/mL streptomycin, Fisher Scientific, Hampton, New Hampshire, USA). Cells were counted and checked for morphology using an inverted Carl Zeiss microscope (Carl Zeiss Microscopy LLC, White Plains, New York, USA). A 96-well plate (Corning Life Sciences, Tewksbury, Massachusetts, USA) was used for culturing cells at 0.2 mill/mL concentration for 24 h at 37°C, 5% CO2 under controlled humidity for western blot experiment. […] Wild-type SOD1 purified from human erythrocyte (Sigma Aldrich, St. Louis, Missouri, USA) was used as positive control (standard) in the experiment. The growth buffer was aspirated and replaced with 30 μL of lysis buffer (150 mM NaCl, 1% Triton X-100, 0.5% sodium deoxycholate, 0.1% SDS, and 50 mM Tris (pH 8.0), all chemicals were purchased from Sigma Aldrich (St. Louis, Missouri, USA)) and incubated for 10 min followed by addition of non-reducing sample buffer. […]

T1 sequence (P00441 2-154 A5V limits assumed): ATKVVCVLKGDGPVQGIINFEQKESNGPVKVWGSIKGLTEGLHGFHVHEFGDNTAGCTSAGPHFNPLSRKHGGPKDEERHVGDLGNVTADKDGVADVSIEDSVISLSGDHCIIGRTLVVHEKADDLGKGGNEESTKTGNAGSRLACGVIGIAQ

For [O-][S+]1CCCCS1 (stereo not shown) [S-XL6, 1,2-dithiane-1-oxide], the “unfolding temperature (Tu) of S-XL6 cross-linked protein” value (SOD1^A4V; 10-fold molar excess S-XL6, 4 h 37°C, untreated 62.9°C) was 79.3 °C, the “Normalized ROX” value (SOD1^A4V; SOD1 (A4V) + S-XL6, Avg. Temp 88.559) was 0.8246 and the “Normalized ROX” value (SOD1^A4V; SOD1 (A4V) + S-XL6, Avg. Temp 88.8631) was 0.8068. The “Normalized ROX” value (SOD1^A4V; SOD1 (A4V) + S-XL6, Avg. Temp 89.1556) was 0.7806, the “Normalized ROX” value (SOD1^A4V; SOD1 (A4V) + S-XL6, Avg. Temp 89.4509) was 0.7704 and the “Normalized ROX” value (SOD1^A4V; SOD1 (A4V) + S-XL6, Avg. Temp 89.7543) was 0.7528. For the same compound, the “Normalized ROX” value (SOD1^A4V; SOD1 (A4V) + S-XL6, Avg. Temp 90.0524) was 0.7438, the “Normalized ROX” value (SOD1^A4V; SOD1 (A4V) + S-XL6, Avg. Temp 90.3511) was 0.7281 and the “Normalized ROX” value (SOD1^A4V; SOD1 (A4V) + S-XL6, Avg. Temp 90.6551) was 0.7134. The “Normalized ROX” value (SOD1^A4V; SOD1 (A4V) + S-XL6, Avg. Temp 90.9595) was 0.6972, the “Normalized ROX” value (SOD1^A4V; SOD1 (A4V) + S-XL6, Avg. Temp 91.2522) was 0.6869 and the “Normalized ROX” value (SOD1^A4V; SOD1 (A4V) + S-XL6, Avg. Temp 91.5534) was 0.6765. For the same compound, the “Normalized ROX” value (SOD1^A4V; SOD1 (A4V) + S-XL6, Avg. Temp 91.844) was 0.6607, the “Normalized ROX” value (SOD1^A4V; SOD1 (A4V) + S-XL6, Avg. Temp 92.1549) was 0.6557 and the “Normalized ROX” value (SOD1^A4V; SOD1 (A4V) + S-XL6, Avg. Temp 92.4505) was 0.6388. For the same compound, the “Normalized ROX” value (SOD1^A4V; SOD1 (A4V) + S-XL6, Avg. Temp 92.7501) was 0.6357, the “Normalized ROX” value (SOD1^A4V; SOD1 (A4V) + S-XL6, Avg. Temp 93.0577) was 0.6246 and the “Normalized ROX” value (SOD1^A4V; SOD1 (A4V) + S-XL6, Avg. Temp 93.3585) was 0.6123. For the same compound, the “Normalized ROX” value (SOD1^A4V; SOD1 (A4V) + S-XL6, Avg. Temp 93.6532) was 0.6065, the “Normalized ROX” value (SOD1^A4V; SOD1 (A4V) + S-XL6, Avg. Temp 93.9591) was 0.6047 and the “Normalized ROX” value (SOD1^A4V; SOD1 (A4V) + S-XL6, Avg. Temp 94.2561) was 0.5946. For the same compound, the “Normalized ROX” value (SOD1^A4V; SOD1 (A4V) + S-XL6, Avg. Temp 94.5503) was 0.5850, the “Normalized ROX” value (SOD1^A4V; SOD1 (A4V) + S-XL6, Avg. Temp 94.8582) was 0.5820 and the “unfolding temperature (Tu) of S-XL6 cross-linked protein” value (SOD1^H46R; 10-fold molar excess S-XL6, 4 h 37°C, untreated 46.3°C) was 69.3 °C. For the same compound, the “Normalized ROX” value (SOD1^H46R; SOD1 H46R Protein+S-XL6, Avg. Temp 88.537) was 0.19, the “Normalized ROX” value (SOD1^H46R; SOD1 H46R Protein+S-XL6, Avg. Temp 88.845) was 0.18 and the “Normalized ROX” value (SOD1^H46R; SOD1 H46R Protein+S-XL6, Avg. Temp 89.124) was 0.17. For the same compound, the “Normalized ROX” value (SOD1^H46R; SOD1 H46R Protein+S-XL6, Avg. Temp 89.441) was 0.16, the “Normalized ROX” value (SOD1^H46R; SOD1 H46R Protein+S-XL6, Avg. Temp 89.738) was 0.15 and the “Normalized ROX” value (SOD1^H46R; SOD1 H46R Protein+S-XL6, Avg. Temp 90.026) was 0.15. The “Normalized ROX” value (SOD1^H46R; SOD1 H46R Protein+S-XL6, Avg. Temp 90.347) was 0.14, the “Normalized ROX” value (SOD1^H46R; SOD1 H46R Protein+S-XL6, Avg. Temp 90.631) was 0.13 and the “Normalized ROX” value (SOD1^H46R; SOD1 H46R Protein+S-XL6, Avg. Temp 90.929) was 0.12. For the same compound, the “Normalized ROX” value (SOD1^H46R; SOD1 H46R Protein+S-XL6, Avg. Temp 91.236) was 0.12, the “Normalized ROX” value (SOD1^H46R; SOD1 H46R Protein+S-XL6, Avg. Temp 91.540) was 0.11 and the “Normalized ROX” value (SOD1^H46R; SOD1 H46R Protein+S-XL6, Avg. Temp 91.847) was 0.10. For the same compound, the “Normalized ROX” value (SOD1^H46R; SOD1 H46R Protein+S-XL6, Avg. Temp 92.140) was 0.10, the “Normalized ROX” value (SOD1^H46R; SOD1 H46R Protein+S-XL6, Avg. Temp 92.454) was 0.09 and the “Normalized ROX” value (SOD1^H46R; SOD1 H46R Protein+S-XL6, Avg. Temp 92.741) was 0.08. The “Normalized ROX” value (SOD1^H46R; SOD1 H46R Protein+S-XL6, Avg. Temp 93.029) was 0.08, the “Normalized ROX” value (SOD1^H46R; SOD1 H46R Protein+S-XL6, Avg. Temp 93.345) was 0.07 and the “Normalized ROX” value (SOD1^H46R; SOD1 H46R Protein+S-XL6, Avg. Temp 93.646) was 0.07. For the same compound, the “Normalized ROX” value (SOD1^H46R; SOD1 H46R Protein+S-XL6, Avg. Temp 93.947) was 0.06, the “Normalized ROX” value (SOD1^H46R; SOD1 H46R Protein+S-XL6, Avg. Temp 94.241) was 0.06 and the “Normalized ROX” value (SOD1^H46R; SOD1 H46R Protein+S-XL6, Avg. Temp 94.530) was 0.0527. For the same compound, the “Normalized ROX” value (SOD1^H46R; SOD1 H46R Protein+S-XL6, Avg. Temp 94.809) was 0.05, the “Normalized ROX” value (SOD1^H46R; SOD1 H46R Protein+S-XL6, Avg. Temp 95.129) was 0.0441 and the “Normalized ROX” value (SOD1^H46R; SOD1 H46R Protein+S-XL6, Avg. Temp 95.418) was 0.04. For the same compound, the “Normalized ROX” value (SOD1^H46R; SOD1 H46R Protein+S-XL6, Avg. Temp 95.750) was 0.0365, the “Normalized ROX” value (SOD1^H46R; SOD1 H46R Protein+S-XL6, Avg. Temp 96.054) was 0.032 and the “Normalized ROX” value (SOD1^H46R; SOD1 H46R Protein+S-XL6, Avg. Temp 96.342) was 0.03. For the same compound, the “Normalized ROX” value (SOD1^H46R; SOD1 H46R Protein+S-XL6, Avg. Temp 96.634) was 0.0257, the “Normalized ROX” value (SOD1^H46R; SOD1 H46R Protein+S-XL6, Avg. Temp 96.939) was 0.0228 and the “Normalized ROX” value (SOD1^H46R; SOD1 H46R Protein+S-XL6, Avg. Temp 97.230) was 0.02. For the same compound, the “Normalized ROX” value (SOD1^H46R; SOD1 H46R Protein+S-XL6, Avg. Temp 97.449) was 0.017, the “Normalized ROX” value (SOD1^H46R; SOD1 H46R Protein+S-XL6, Avg. Temp 97.842) was 0.0143 and the “Normalized ROX” value (SOD1^H46R; SOD1 H46R Protein+S-XL6, Avg. Temp 98.133) was 0.0127. The “Normalized ROX” value (SOD1^H46R; SOD1 H46R Protein+S-XL6, Avg. Temp 98.436) was 0.01, the “Normalized ROX” value (SOD1^H46R; SOD1 H46R Protein+S-XL6, Avg. Temp 98.745) was 0.00697 and the “Normalized ROX” value (SOD1^H46R; SOD1 H46R Protein+S-XL6, Avg. Temp 99.031) was 0.00571. The “Normalized ROX” value (SOD1^H46R; SOD1 H46R Protein+S-XL6, Avg. Temp 99.342) was 0.0034, the “Normalized ROX” value (SOD1^H46R; SOD1 H46R Protein+S-XL6, Avg. Temp 99.632) was 0.00127 and the “Normalized ROX” value (SOD1^H46R; SOD1 H46R Protein+S-XL6, Avg. Temp 99.860) was 0.00. It also gave an EC50 (wild-type SOD1) of about 5 µM.
